Laboratory results reported in publication PMC6028903, “Solubility Thermodynamics of CyMe 4 -BTBP in Various Diluents Mixed with TBP” (Journal of Solution Chemistry, 2018).
≈ marks a conversion by molar mass, not a printed value. Like-named read-outs stand apart in the source and are kept apart here. Marks after values point to notes of the source that are not given here.

Tests used:
[1] = literature; cited from earlier work
[2] = parameters: method as in earlier work; details: literature; cited from earlier work
[3] = literature; cited from earlier work; remark: listed apart in the source
[4] = 298 K; cited from earlier work
[5] = Surface tension against air (du Noüy ring method); assay type: physicochemical; details: 294 K, 0.1 MPa
Procedure: (§1) The density, ρ , and surface tension, γ , against air (using the du Noüy ring method) for the different solvents was measured at room temperature (293–295 K) using a tensiometer (Sigma 700, Attension). The surface tensiometer ring was lowered into the organic phase until it was totally immersed. The tensiometer then measured the surface tension automatically by slowly pulling out the ring of the organic phase and measuring the force required to detach the ring from the organic surface. The density was measured using the same tensiometer and a calibrated density probe.

[6] = Density (tensiometer with density probe); assay type: physicochemical; details: 294 K, 0.1 MPa
Procedure: as §1

[7] = Solubility of CyMe4-BTBP in GANEX solvents (70% vol diluent, 30% vol TBP), UV-VIS of the Fe2+ complex; assay type: physicochemical; details: organic solvent or mixture, thermodynamic from solid
[8] = Dissolution thermodynamics of CyMe4-BTBP (van't Hoff linear fit and heat capacity calculation); assay type: physicochemical; details: for c (288 K), calculated CyMe 4 -BTBP concentration / c (298 K), calculated CyMe 4 -BTBP concentration / c (308 K), calculated CyMe 4 -BTBP concentration: calculated from linear fits; for ΔG^0 (288 K) / ΔG^0 (298 K) / ΔG^0 (308 K): from linear fits; for ΔH^0 / ΔS^0: calculated using ΔCp; for ΔH^0 linear / ΔS^0 linear: linear fit
[9] = 10 mmol/L CyMe4-BTBP, cited from earlier work
[10] = parameters: method as in doi:10.1080/07366299.2011.539462; details: cited from earlier work
[11] = Cyclohex./TBP b, pre-equilibrated with HNO3
[12] = Cyclohex./TBP b, pre-equilibrated
[13] = FS-13/TBP b, pre-equilibrated with HNO3
[14] = Octanol/TBP b, pre-equilibrated with HNO3
[15] = Octanol/TBP b, pre-equilibrated

In the case of O=C1CCCCC1 [Cyclohexanone, cyclohexanone], the Surface tension [1] is listed as 34.4^a mN · m ^-1, the Density [2] is listed as 0.95^b g · cm ^-3 and the Flash point [3] is listed as 317 K^a. For the same compound, the Solvent in water [4] was 2.3^b wt% and the Water in solvent [4] was 8.0^b wt%.

For CCCCCCCCO [1-Octanol, 1-octanol], the Surface tension [1] is listed as 27.2^a mN · m ^-1, the Density [2] is listed as 0.83^b g · cm ^-3 and the Flash point [3] is listed as 358 K^a. The Solvent in water [4] was 0.0538^b wt% and the Water in solvent [4] was 4.2^c wt%.

In the case of O=S(=O)(c1ccccc1)C(F)(F)F [FS-13, phenyl trifluoromethyl sulfone], the Surface tension [5] is given as 26.6 ± 0.01 mN · m ^-1, the Density [6] is given as 1.40 ± 0.01 g · cm ^-3 and the Flash point [3] is given as 395 K^d.

Work on CC1(C)CCC(C)(C)c2nc(-c3cccc(-c4cccc(-c5nnc6c(n5)C(C)(C)CCC6(C)C)n4)n3)nnc21 [CyMe 4 -BTBP, 6,6′-bis(5,5,8,8-tetramethyl-5,6,7,8-tetrahydrobenzo[1,2,4]triazin-3-yl)[2,2′]bipyridine] yielded a solubility at 3 days ([7]; GANEX solvent 1-octanol/TBP, 25 °C, Octanol/TBP, 70% vol diluent and 30% vol TBP, 298 K, read-out: CyMe 4 -BTBP solubility at 298 K) of 13 mM (≈ 6.95 mg/mL), a solubility at 3 days ([7]; GANEX solvent FS-13/TBP, 25 °C, FS-13/TBP, 70% vol diluent and 30% vol TBP, 298 K, read-out: CyMe 4 -BTBP solubility at 298 K) of 130 mM (≈ 69.5 mg/mL) and a solubility at 3 days ([7]; GANEX solvent FS-13/TBP, 70% vol FS-13 and 30% vol TBP, 4 mol/L NaCl in Milli-Q water instead of nitric acid, single sample, read-out: CyMe 4 -BTBP solubility) of 20 mM (≈ 10.7 mg/mL). It also gave a solubility at 3 days ([7]; GANEX solvent FS-13/TBP, 70% vol FS-13 and 30% vol TBP, 4 mol/L hydrochloric acid instead of nitric acid, single sample, read-out: CyMe 4 -BTBP solubility) of 30 mM (≈ 16 mg/mL), a solubility at 3 days ([7]; GANEX solvent FS-13/TBP, 70% vol FS-13 and 30% vol TBP, Milli-Q water instead of nitric acid, single sample, read-out: CyMe 4 -BTBP solubility) of 15 mM (≈ 8.02 mg/mL) and a solubility at 3 days ([7]; GANEX solvent cyclohexanone/TBP, 25 °C, Cyclohex./TBP, 70% vol diluent and 30% vol TBP, 298 K, read-out: CyMe 4 -BTBP solubility at 298 K) of 180 mM (≈ 96.2 mg/mL). For the same compound, the “c (288 K), calculated CyMe 4 -BTBP concentration” value ([8]; Cyclohex./TBP a, pristine) was 13 mmol · L ^-1, the “ΔG^0 (288 K)” value ([8]; Cyclohex./TBP a, pristine) was 10.5 kJ · mol ^-1 and the “c (298 K), calculated CyMe 4 -BTBP concentration” value ([8]; Cyclohex./TBP a, pristine) was 27 mmol · L ^-1. For the same compound, the “ΔG^0 (298 K)” value ([8]; Cyclohex./TBP a, pristine) was 8.9 kJ · mol ^-1, the “c (308 K), calculated CyMe 4 -BTBP concentration” value ([8]; Cyclohex./TBP a, pristine) was 56 mmol · L ^-1 and the “ΔG^0 (308 K)” value ([8]; Cyclohex./TBP a, pristine) was 7.4 kJ · mol ^-1. For the same compound, the “ΔH^0” value ([8]; Cyclohex./TBP a, pristine) was 53 kJ · mol ^-1, the “ΔS^0” value ([8]; Cyclohex./TBP a, pristine) was 150 J · mol ^-1· K ^-1 and the “ΔH^0 linear” value ([8]; Cyclohex./TBP a, pristine) was 54.4 ± 2.6 kJ · mol ^-1. For the same compound, the “ΔS^0 linear” value ([8]; Cyclohex./TBP a, pristine) was 152.4 ± 1.9 J · mol ^-1· K ^-1, the ΔCp [8, 11] was 1.4 kJ · mol ^-1· K ^-1 and the “ΔH^0” value [8, 11] was 15 kJ · mol ^-1. For the same compound, the “ΔS^0” value [8, 11] was 38 J · mol ^-1· K ^-1, the “ΔH^0 linear” value [8, 11] was 13.3 ± 0.5 kJ · mol ^-1 and the “ΔS^0 linear” value [8, 11] was 30.8 ± 0.3 J · mol ^-1· K ^-1. The “c (288 K), calculated CyMe 4 -BTBP concentration” value [8, 12] was 160 mmol · L ^-1, the “ΔG^0 (288 K)” value [8, 12] was 4.4 kJ · mol ^-1 and the “c (298 K), calculated CyMe 4 -BTBP concentration” value [8, 12] was 190 mmol · L ^-1. The “ΔG^0 (298 K)” value [8, 12] was 4.1 kJ · mol ^-1, the “c (308 K), calculated CyMe 4 -BTBP concentration” value [8, 12] was 230 mmol · L ^-1 and the “ΔG^0 (308 K)” value [8, 12] was 3.8 kJ · mol ^-1. For the same compound, the ΔCp ([8]; FS-13/TBP a, pristine) was 1.3 kJ · mol ^-1· K ^-1, the “c (288 K), calculated CyMe 4 -BTBP concentration” value ([8]; FS-13/TBP a, pristine) was 14 mmol · L ^-1 and the “ΔG^0 (288 K)” value ([8]; FS-13/TBP a, pristine) was 10.3 kJ · mol ^-1. The “c (298 K), calculated CyMe 4 -BTBP concentration” value ([8]; FS-13/TBP a, pristine) was 16 mmol · L ^-1, the “ΔG^0 (298 K)” value ([8]; FS-13/TBP a, pristine) was 10.3 kJ · mol ^-1 and the “c (308 K), calculated CyMe 4 -BTBP concentration” value ([8]; FS-13/TBP a, pristine) was 17 mmol · L ^-1. For the same compound, the “ΔG^0 (308 K)” value ([8]; FS-13/TBP a, pristine) was 10.4 kJ · mol ^-1, the “ΔH^0” value ([8]; FS-13/TBP a, pristine, 288, 298, 308 K) was 8 kJ · mol ^-1 and the “ΔH^0 linear” value ([8]; FS-13/TBP a, pristine) was 8.3 ± 0.6 kJ · mol ^-1. The “ΔH^0” value [8, 13] was 27 kJ · mol ^-1, the “ΔS^0” value [8, 13] was 72 J · mol ^-1· K ^-1 and the “ΔH^0 linear” value [8, 13] was 26.6 ± 0.3 kJ · mol ^-1. For the same compound, the “ΔS^0 linear” value [8, 13] was 72.1 ± 0.2 J · mol ^-1· K ^-1, the “c (288 K), calculated CyMe 4 -BTBP concentration” value ([8]; FS-13/TBP b, pre-equilibrated) was 90 mmol · L ^-1 and the “ΔG^0 (288 K)” value ([8]; FS-13/TBP b, pre-equilibrated) was 5.8 kJ · mol ^-1. For the same compound, the “c (298 K), calculated CyMe 4 -BTBP concentration” value ([8]; FS-13/TBP b, pre-equilibrated) was 130 mmol · L ^-1, the “ΔG^0 (298 K)” value ([8]; FS-13/TBP b, pre-equilibrated) was 5.1 kJ · mol ^-1 and the “c (308 K), calculated CyMe 4 -BTBP concentration” value ([8]; FS-13/TBP b, pre-equilibrated) was 180 mmol · L ^-1. For the same compound, the “ΔG^0 (308 K)” value ([8]; FS-13/TBP b, pre-equilibrated) was 4.4 kJ · mol ^-1, the “c (288 K), calculated CyMe 4 -BTBP concentration” value ([8]; Octanol/TBP a, pristine) was 3.4 mmol · L ^-1 and the “ΔG^0 (288 K)” value ([8]; Octanol/TBP a, pristine) was 13.6 kJ · mol ^-1. For the same compound, the “c (298 K), calculated CyMe 4 -BTBP concentration” value ([8]; Octanol/TBP a, pristine) was 4.3 mmol · L ^-1, the “ΔG^0 (298 K)” value ([8]; Octanol/TBP a, pristine) was 13.4 kJ · mol ^-1 and the “c (308 K), calculated CyMe 4 -BTBP concentration” value ([8]; Octanol/TBP a, pristine) was 5.5 mmol · L ^-1. For the same compound, the “ΔG^0 (308 K)” value ([8]; Octanol/TBP a, pristine) was 13.3 kJ · mol ^-1, the “ΔH^0” value ([8]; Octanol/TBP a, pristine) was 17 kJ · mol ^-1 and the “ΔS^0” value ([8]; Octanol/TBP a, pristine) was 14 J · mol ^-1· K ^-1. The “ΔH^0 linear” value ([8]; Octanol/TBP a, pristine) was 18.0 ± 1.1 kJ · mol ^-1, the “ΔS^0 linear” value ([8]; Octanol/TBP a, pristine) was 15.0 ± 0.8 J · mol ^-1· K ^-1 and the ΔCp [8, 14] was 2.3 kJ · mol ^-1· K ^-1. For the same compound, the “ΔH^0” value [8, 14] was 21 kJ · mol ^-1, the “ΔS^0” value [8, 14] was 33 J · mol ^-1· K ^-1 and the “ΔH^0 linear” value [8, 14] was 20.0 ± 1.0 kJ · mol ^-1. For the same compound, the “ΔS^0 linear” value [8, 14] was 31.6 ± 0.7 J · mol ^-1· K ^-1, the “c (288 K), calculated CyMe 4 -BTBP concentration” value [8, 15] was 11 mmol · L ^-1 and the “ΔG^0 (288 K)” value [8, 15] was 10.9 kJ · mol ^-1. For the same compound, the “c (298 K), calculated CyMe 4 -BTBP concentration” value [8, 15] was 14 mmol · L ^-1, the “ΔG^0 (298 K)” value [8, 15] was 10.6 kJ · mol ^-1 and the “c (308 K), calculated CyMe 4 -BTBP concentration” value [8, 15] was 18 mmol · L ^-1. For the same compound, the “ΔG^0 (308 K)” value [8, 15] was 10.2 kJ · mol ^-1, the “Americium distribution ratio at 298 K using 10 mmol · L ^-1 CyMe 4 -BTBP” value (“Americium distribution ratio at 298 K” below) ([9]; Cyclohex./TBP) was 160^b and the “Americium distribution ratio at 298 K” value ([9]; FS-13/TBP) was 30^a. For the same compound, the “Americium distribution ratio at 298 K” value ([9]; Octanol/TBP) was 30^c and the “Solubility in a nitric acid aqueous phase” value [10] was “not soluble above the detection limit”.
